Reference: ChEMBL document CHEMBL1201862, “PubChem BioAssay data set” (2004)
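Step 1: Grow cells in 96-well plates. Step 2: Expose to compound for 48 hours at 5 concentrations. Step 3: Interpolate endpoints linearly; if unreached, use highest concentration. Abbreviation: GI50, concentration required for 50% inhibition of growth.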 Calls of active or inactive are those of the source. Rule as the data show it: active = GI50 up to about 1.1 µM and inactive = higher.

What was measured:
Assay in all cases: inhibition of tumour cell growth, NCI panel, 48 h
NCI-H522 = test system: NCI-H522
A549 = test system: A549
IGROV-1 = test system: IGROV-1
A498 = test system: A498
NCI-H460 = test system: NCI-H460
MDA-N = test system: MDA-N
COLO 205 = test system: COLO 205
OVCAR-5 = test system: OVCAR-5
OVCAR-4 = test system: OVCAR-4
MCF7 = test system: MCF7
K562 = test system: K562
NCI/ADR-RES = test system: NCI/ADR-RES
SR = test system: SR
Malme-3M = test system: Malme-3M
UACC-62 = test system: UACC-62
HCT-15 = test system: HCT-15
PC-3 = test system: PC-3
RXF 393 = test system: RXF 393
U-251 = test system: U-251
EKVX = test system: EKVX

| SMILES | GI50 (NCI-H522) | GI50 (A549) | GI50 (IGROV-1) | GI50 (A498) | GI50 (NCI-H460) | GI50 (MDA-N) | GI50 (COLO 205) | GI50 (OVCAR-5) | GI50 (OVCAR-4) | GI50 (MCF7) | GI50 (K562) | GI50 (NCI/ADR-RES) | GI50 (SR) | GI50 (Malme-3M) | GI50 (UACC-62) | GI50 (HCT-15) | GI50 (PC-3) | GI50 (RXF 393) | GI50 (U-251) | GI50 (EKVX) |
| --- | --- | --- | --- | --- | --- | --- | --- | --- | --- | --- | --- | --- | --- | --- | --- | --- | --- | --- | --- | --- |
| O=C(Nc1cccc(Cl)c1)Nn1cnnc1 | > 100 µM (inactive) | > 100 µM (inactive) | > 100 µM (inactive) | > 100 µM (inactive) | > 100 µM (inactive) | > 100 µM (inactive) | > 100 µM (inactive) | 0.339 µM (active) | > 100 µM (inactive) | > 100 µM (inactive) | > 100 µM (inactive) | > 100 µM (inactive) | > 100 µM (inactive) | > 100 µM (inactive) | > 100 µM (inactive) | > 100 µM | > 100 µM (inactive) | > 100 µM (inactive) | > 100 µM (inactive) | > 100 µM (inactive) |
| Cc1c(-c2nc(N)nc(C3CC3)c2C)nc(N)nc1C1CC1 | > 100 µM (inactive) | > 100 µM (inactive) | > 100 µM (inactive) | > 100 µM (inactive) | > 100 µM (inactive) | > 100 µM (inactive) | > 100 µM (inactive) | > 100 µM (inactive) | > 100 µM (inactive) | > 100 µM (inactive) | > 100 µM (inactive) | > 100 µM (inactive) | > 100 µM (inactive) | > 100 µM (inactive) | > 100 µM (inactive) | > 100 µM | > 100 µM (inactive) | > 100 µM (inactive) | > 100 µM (inactive) | > 100 µM (inactive) |
| COc1ccc(SCc2cc(OC)ccc2OC)cc1 | 18.8 µM (inactive) | 22.4 µM (inactive) | 15.9 µM (inactive) | 18.7 µM (inactive) | 37.4 µM (inactive) | 3.33 µM (inactive) | 15.6 µM (inactive) | 24.5 µM (inactive) | 20.8 µM (inactive) | 15.1 µM (inactive) | 4.24 µM (inactive) | 13.2 µM (inactive) | 6.55 µM (inactive) | 55.6 µM (inactive) | 18.8 µM (inactive) | 6.58 µM | 32.8 µM (inactive) | 40.6 µM (inactive) | 11.2 µM (inactive) | > 56.1 µM (inactive) |
| CC(=O)OC[C@@]1(C)[C@@H]2[C@@H]3[C@@]4(CO[C@]3(C)C(=O)[C@@]3(O)C[C@H](C)[C@H](OC(C)=O)[C@@H]3[C@H]4OC(C)=O)[C@H](OC(=O)c3ccccc3)C[C@@H]21 | > 100 µM (inactive) | > 100 µM (inactive) | > 100 µM (inactive) | > 100 µM (inactive) | > 100 µM (inactive) | > 100 µM (inactive) | > 100 µM (inactive) | > 100 µM (inactive) | > 100 µM (inactive) | > 100 µM (inactive) | > 100 µM (inactive) | > 100 µM (inactive) | > 100 µM (inactive) | > 100 µM (inactive) | > 100 µM (inactive) | > 100 µM | > 100 µM (inactive) | > 100 µM (inactive) | > 100 µM (inactive) | > 100 µM (inactive) |
| O=[N+]([O-])c1ccc2nc(O)n[n+]([O-])c2c1 | > 100 µM (inactive) | > 100 µM (inactive) | > 100 µM (inactive) | > 100 µM (inactive) | > 100 µM (inactive) | > 100 µM (inactive) | > 100 µM (inactive) | > 100 µM (inactive) | > 100 µM (inactive) | > 100 µM (inactive) | > 100 µM (inactive) | > 100 µM (inactive) | > 20.6 µM (inactive) | > 100 µM (inactive) | > 100 µM (inactive) | > 100 µM | > 100 µM (inactive) | > 100 µM (inactive) | > 100 µM (inactive) | > 100 µM (inactive) |
| COC1(OC)CCc2c(sc3ncnc(Nc4cccc(Br)c4)c23)C1 | 12.4 µM (inactive) | 25.9 µM (inactive) | 16.7 µM (inactive) | > 100 µM (inactive) | 40.7 µM (inactive) | 35.4 µM (inactive) | 35.4 µM (inactive) | 20.7 µM (inactive) | 27.7 µM (inactive) | 40.5 µM (inactive) | 26.2 µM (inactive) | 25.5 µM (inactive) | 26.2 µM (inactive) | 41.5 µM (inactive) | 47.2 µM (inactive) | 30.8 µM | 43.3 µM (inactive) | 22.9 µM (inactive) | 61.5 µM (inactive) | 11.2 µM (inactive) |
| CC1C=C(NCC2(CO)CCC2)N=C(N)N1 (stereo not given) | > 100 µM (inactive) | > 100 µM (inactive) | > 100 µM (inactive) | 91.6 µM (inactive) | > 100 µM (inactive) | > 100 µM (inactive) | > 100 µM (inactive) | > 100 µM (inactive) | > 100 µM (inactive) | > 100 µM (inactive) | > 100 µM (inactive) | > 100 µM (inactive) | > 100 µM (inactive) | > 100 µM (inactive) | > 100 µM (inactive) | > 100 µM | > 100 µM (inactive) | > 100 µM (inactive) | > 100 µM (inactive) | > 100 µM (inactive) |
| CSc1cc(Cl)c(C(=O)Nc2ccccc2)cc1S(=O)(=O)n1ccnc1O | > 100 µM (inactive) | > 100 µM (inactive) | > 100 µM (inactive) | > 100 µM (inactive) | > 100 µM (inactive) | > 100 µM (inactive) | > 100 µM (inactive) | > 100 µM (inactive) | > 100 µM (inactive) | > 100 µM (inactive) | > 100 µM (inactive) | > 100 µM (inactive) | > 100 µM (inactive) | > 100 µM (inactive) | > 100 µM (inactive) | > 100 µM | > 100 µM (inactive) | > 100 µM (inactive) | > 100 µM (inactive) | > 100 µM (inactive) |
| C[n+]1ccccc1/C=C/c1ccc2c(c1)OCO2 | > 10 µM (inactive) | 4.59 µM (inactive) | > 10 µM (inactive) | > 10 µM (inactive) | > 10 µM (inactive) | > 10 µM (inactive) | 4.55 µM (inactive) | > 10 µM (inactive) | > 10 µM (inactive) | > 10 µM (inactive) | > 10 µM (inactive) | > 10 µM (inactive) | > 10 µM (inactive) | > 10 µM (inactive) | > 10 µM (inactive) | > 10 µM | > 10 µM (inactive) | > 10 µM (inactive) | > 10 µM (inactive) | > 10 µM (inactive) |
| CC[C@H](C)[C@H](NC(=O)[C@@]1(O)[C@H](O)[C@]2(CC)C=CCN3CC[C@@]4(c5cc(Br)c(OC)cc5N(C)[C@@H]14)[C@@H]32)C(=O)OC | 27.5 µM (inactive) | 20.5 µM (inactive) | 26.3 µM (inactive) | 25.3 µM (inactive) | 24.3 µM (inactive) | 25.6 µM (inactive) | 14 µM (inactive) | > 100 µM (inactive) | 4.84 µM (inactive) | 35.6 µM (inactive) | 67.1 µM (inactive) | 57.8 µM (inactive) | 27.2 µM (inactive) | 21.9 µM (inactive) | 12.6 µM (inactive) | 25.7 µM | 76.7 µM (inactive) | 45.5 µM (inactive) | 27.8 µM (inactive) | 40.2 µM (inactive) |
